These results are taken from patent US11370784B2 (MISSION THERAPEUTICS LIMITED, priority 2016, dated 2022).

Where only a bound is given, the exact number is not on record here.

In the test the target is USP30 (Homo sapiens (Human), UniProt Q70CQ3). As to the kind of experiment: USP30 biochemical IC50 assay. To be noted: fluorescence polarisation, TAMRA labelled peptide linked to ubiquitin as substrate; enzyme and compound incubated 30 min at room temp; read-out: IC50 range. How it is done: Reactions were performed in duplicate in black 384 well plates (small volume, Greiner 784076) in a final reaction volume of 21 μl. Either 1 μl of 50% DMSO or diluted compound was added to the plate. USP30 was diluted in reaction buffer (40 mM Tris, pH 7.5, 0.005% Tween 20, 0.5 mg/ml BSA, 5 mM beta-mercaptoethanol) to the equivalent of 0.05 μl/well and 10 μl of diluted USP30 was added to the compound. Enzyme and compound were incubated for 30 min at room temp. Reactions were initiated by the addition of 50 nM of TAMRA labelled peptide linked to ubiquitin via an iso-peptide bond as fluorescence polarisation substrate. Reactions were read immediately after addition of substrate and following a 2 h incubation at room temperature. Readings were performed on a Pherastar Plus (BMG Labtech). λ Excitation 540 nm; λ Emission 590 nm.
Chain of USP30 (Q70CQ3 57-517): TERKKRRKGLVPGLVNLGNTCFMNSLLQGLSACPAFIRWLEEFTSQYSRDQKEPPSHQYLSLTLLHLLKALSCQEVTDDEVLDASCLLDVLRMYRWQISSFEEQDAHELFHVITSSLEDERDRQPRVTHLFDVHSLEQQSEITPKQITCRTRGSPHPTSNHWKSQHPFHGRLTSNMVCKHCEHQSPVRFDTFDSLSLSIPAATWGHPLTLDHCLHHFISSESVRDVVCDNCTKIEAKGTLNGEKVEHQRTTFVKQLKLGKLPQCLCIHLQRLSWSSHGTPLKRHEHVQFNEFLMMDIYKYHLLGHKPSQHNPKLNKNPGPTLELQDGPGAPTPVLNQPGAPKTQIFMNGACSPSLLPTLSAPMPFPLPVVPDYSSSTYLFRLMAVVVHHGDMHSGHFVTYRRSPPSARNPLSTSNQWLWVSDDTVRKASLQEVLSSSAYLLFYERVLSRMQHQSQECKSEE
Background: Fluorescence polarisation rises when a labelled molecule tumbles more slowly, as on binding a larger partner.
In the case of `CN1CCN(C#N)C[C@@H]1C(=O)Nc1ncc(-c2ccccc2)s1` [Example 68], the IC50 lay in the range of 1000 to 10000 nM. `N#CN1CCOC(C(=O)Nc2ccc(-c3ccccc3)nc2)C1` (centres unmarked) [Example 17, 4-Cyano-N-(6-phenylpyridin-3-yl)morpholine-2-carboxamide]: the half-maximal inhibitory concentration (IC50) is 1000 to 10000 nM. For `N#Cc1cccc(-n2cnc(NC(=O)[C@@]3(F)CCCN(C#N)C3)n2)c1` [Example 83, (R)-1-Cyano-N-(1-(3-cyanophenyl)-1H-1,2,4-triazol-3-yl)-3-fluoropiperidine-3-carboxamide], the IC50 lay within 100 to 1000 nM. With `N#CN1CCC[C@](F)(C(=O)Nc2ccc(-c3ccn[nH]3)cn2)C1` [Example 72, (R)—N-(5-(1H-Pyrazol-5-yl)pyridin-2-yl)-1-cyano-3-fluoropiperidine-3-carboxamide], the IC50 lay in the range of 100 to 1000 nM. As for `N#CN1CCCC(C(=O)Nc2cc(-c3ccccc3)no2)C1` (centres unmarked) [Example 41, 1-Cyano-N-(3-phenylisoxazol-5-yl)piperidine-3-carboxamide], the figure is 1000 to 10000 nM; as for `N#CN1CCC[C@](F)(C(=O)Nc2ccc(-c3cccc4cn[nH]c34)nn2)C1` [Example 88, (R)—N-(6-(1H-indazol-7-yl)pyridazin-3-yl)-1-cyano-3-fluoropiperidine-3-carboxamide], under 100 nM; as for `N#CN1CCCC(C(=O)Nc2cc(-c3ccccc3)ccn2)C1` (centres unmarked) [Example 40, 1-Cyano-N-(4-phenylpyridin-2-yl)piperidine-3-carboxamide], 1000 to 10000 nM. In the case of `N#CN1CCC[C@](F)(C(=O)Nc2ccc(-c3cccc4[nH]ncc34)nn2)C1` [Example 91, (R)—N-(6-(1H-Indazol-4-yl)pyridazin-3-yl)-1-cyano-3-fluoropiperidine-3-carboxamide], the IC50 was under 100 nM. Regarding `N#CN1CCC[C@](F)(C(=O)Nc2cn(-c3cccc(OC(F)(F)F)c3)cn2)C1` (stereo in doubt) [Example 81, 1-Cyano-3-fluoro-N-(1-(3-(trifluoromethoxy)phenyl)-1H-imidazol-4-yl)piperidine-3-carboxamide], the IC50 lay within 100 to 1000 nM. For the compound `N#CN1CCO[C@@H](C(=O)Nc2cc3cc(-c4cn[nH]c4)ccc3cn2)C1` [Example 31, (R)-N-(6-(1H-Pyrazol-4-yl)isoquinolin-3-yl)-4-cyanomorpholine-2-carboxamide], the IC50 lay in the range of 1000 to 10000 nM. For `N#CN1CCOC(C(=O)Nc2cc(-c3ccccc3)on2)C1` (centres unmarked) [Example 13, 4-Cyano-N-(5-phenylisoxazol-3-yl)morpholine-2-carboxamide], the IC50 is 1000 to 10000 nM. `N#CN1CCCC(C(=O)Nc2cc(-c3ccccc3)[nH]n2)C1` (centres unmarked) [Example 38, 1-Cyano-N-(5-phenyl-1H-pyrazol-3-yl)piperidine-3-carboxamide]: the IC50 was 1000 to 10000 nM. Turning to `N#CN1CCO[C@@H](C(=O)Nc2cc(-c3cccc4[nH]ncc34)ncn2)C1` [Example 30, (R)-N-(6-(1H-indazol-4-yl)pyrimidin-4-yl)-4-cyanomorpholine-2-carboxamide], the IC50 lay within 1000 to 10000 nM. As to `N#Cc1cccc(-c2ccnc(NC(=O)[C@@H]3CN(C#N)CCO3)c2)c1` [Example 54, (S)-4-Cyano-N-(4-(3-cyanophenyl)pyridin-2-yl)morpholine-2-carboxamide], the IC50 lay within 1000 to 10000 nM. With `N#Cc1ccc(-c2cc(NC(=O)[C@H]3CN(C#N)CCO3)ncn2)cc1` [Example 25, (R)-4-Cyano-N-(6-(4-cyanophenyl)pyrimidin-4-yl)morpholine-2-carboxamide], the IC50 was in the range of 1000 to 10000 nM. For `N#CN1CCCC(F)(C(=O)Nc2ncc(-c3ccccc3)s2)C1` (centres unmarked) [Example 42, 1-Cyano-3-fluoro-N-(5-phenylthiazol-2-yl)piperidine-3-carboxamide] the value was 100 to 1000 nM; for `N#CN1CCO[C@@H](C(=O)Nc2cc(-c3cccc(C(N)=O)c3)ncn2)C1` [Example 27, (R)-N-(6-(3-Carbamoylphenyl)-pyrimidin-4-yl)-4-cyanomorpholine-2-carboxamide], 1000 to 10000 nM. On to `N#CN1CCO[C@@H](C(=O)Nc2cc(-c3cccc(C(F)(F)F)c3)no2)C1` [Example 51, (R)-4-Cyano-N-(3-(3-(trifluoromethyl)phenyl)isoxazol-5-yl)morpholine-2-carboxamide], for which the IC50 is 100 to 1000 nM.

Turning to `N#CN1CCC[C@](F)(C(=O)Nc2cnc(-c3cccc4cn[nH]c34)cn2)C1` [Example 86, (R)—N-(5-(1H-Indazol-7-yl)pyrazin-2-yl)-1-cyano-3-fluoropiperidine-3-carboxamide], the IC50 is under 100 nM. For `N#CN1CCOC(C(=O)Nc2nc3ccc(-c4cn[nH]c4)cc3s2)C1` (centres unmarked) [Example 7, N-(6-(1H-Pyrazol-4-yl)benzo[d]thiazol-2-yl)-4-cyanomorpholine-2-carboxamide], the IC50 lay within 100 to 1000 nM. Regarding `N#CN1CCOC(C(=O)Nc2ncc(-c3ccc(F)cc3)s2)C1` (centres unmarked) [Example 2, 4-Cyano-N-(5-(4-fluorophenyl)thiazol-2-yl)morpholine-2-carboxamide], the IC50 lay within 100 to 1000 nM.

For `Cn1cc(-c2ccc(NC(=O)C3CN(C#N)CCO3)cc2)cn1` (centres unmarked) [Example 5, 4-Cyano-N-(4-(1-methyl-1H-pyrazol-4-yl)phenyl)morpholine-2-carboxamide], the IC50 was in the range of 1000 to 10000 nM. For `N#CN1CCCC(C(=O)Nc2ccc(-c3ccccc3)cn2)C1` (centres unmarked) [Example 39, 1-Cyano-N-(5-phenylpyridin-2-yl)piperidine-3-carboxamide] the value was 1000 to 10000 nM.

Broadly, the IC50 is the midpoint of a concentration-inhibition curve.
